Measurements taken from patent US20250269018A1, “COMBINED CANCER THERAPY WITH AN EPITHELIAL CELL ADHESION MOLECULE (EPCAM) INHIBITOR AND A HEPATOCYTE GROWTH FACTOR RECEPTOR (HGFR) INHIBITOR” (ACADEMIA SINICA, priority 2021, published 2025).
Entries after “also recorded” stand apart in the source; their conditions may differ.

Tested on: HCT116 cells
Assay: Transwell migration/invasion and wound healing assay, HCT116
Format: cell-based, human
Conditions: for EpEX-induced invasion: 50 nM EpEX, LY 25 μM, U0 20 μM, PF 10 μM, Transwell with matrigel, FIG. 4K; for EpEX-induced migration and invasion: HCT116 cells, discussion statement
Method: FIGS. 3A to 3H. EpEX induces the activation of ERK and FAK-AKT signaling pathway. Wild type (WT) or EpCAM knockout (KO) HCT116 cells after EpEX-His treatment. (FIG. 3A) The levels of phosphorylated HGFR, AKT, FAK, GSK3β, ERK, ADAM17, and presenilin 2 were assayed by Western blotting. (FIG. 3B) Colony formation was examined by crystal violet staining. (FIG. 3C) HCT116 cells were treated with TAPI (ADAM17 inhibitor) or DAPT (γ-secretase inhibitor) for 24 hours, and the phosphorylation of HGFR, AKT, and ERK was analyzed by Western blotting, and EpEX protein level in culture medium was examined by immunoprecipitation and Western blotting. (FIG. 3D) HCT116 and HT29 cells were starved for 16 h, then treated with EpEX-His (50 nM) and HGF (0.5 nM) for 15 min. The levels of phosphorylated HGFR, AKT, and ERK were examined by Western blotting. (FIG. 3E) HCT116 cells were starved for 16 h, then treated with 50 nM EpEX-His for 15 min. HGFR inhibitor SU11274 (SU, 10 μM), AKT inhibitor LY294002 (LY, 25 μM), ERK inhibitor U0126 (U0, 20 μM), or FAK inhibitor PF-562271 (PF, 10 μM) were applied 1 h before EpEX treatment. Phosphorylation of AKT, ERK, and FAK was examined by Western blotting. (FIG. 3F) HCT116 cells were starved for 16 h, then treated with 50 nM EpEX, and SU (10 μM), LY (25 μM), U0 (20 μM) or PF (10 μM). Colony formation was examined by crystal violet staining after treatment for 7 days. The relative colony densities are shown. Migration ability was examined by the (FIG. 3G) wound healing assay at the indicated times. (FIG. 3H) The numbers of migration cell was assessed by a Transwell after treatment for 24 h.
FIGS. 4A to 4L. EpEX induces EMT and invasion by stabilizing β-catenin and Snail through decreasing GSK3β activity. (FIG. 4A) The protein expression of EMT markers and regulators was detected by Western blotting in Wild-type (WT) or EpCAM knockout (KO) HCT116 cells after EpEX treatment. (FIG. 4B) Cell invasion was examined by Transwell chamber assay with matrigel. (FIG. 4C) WT or KO HCT116 and HT29 cells were starved for 16 h, then treated with 0.5 nM of HGF with 2% FBS for 24 h. EMT-related protein expression (E-cadherin, vimentin, and Snail) was examined by Western blotting. (FIG. 4D) WT or KO HCT116 and HT29 cells were treated with HGF (0.5 nM) for 24 h. Invasion by HCT116 and HT29 cells was examined by Transwell chamber assay with matrigel. (FIG. 4E) HCT116 and HT29 cells were starved for 16 h, then treated with 0.5 nM of HGF with 2% FBS for 24 h. EMT-related protein expression (E-cadherin, Vimentin, and Snail) was examined by Western blotting. (FIG. 4F) HCT116 and HT29 cells were starved for 16 h, then treated with 0.5 nM of HGF with 2% FBS for 24 h. Cell invasion was assessed by a Transwell assay with matrigel. (FIG. 4G) HCT116 cells after shLuc and shHGFR treatment were treated with 50 nM of EpEX-His. HCT116 cells after shLuc and shHGFR treatment were treated with 50 nM of EpEX-His with 2% FBS for 24 h. EMT-related protein expression (E-cadherin, Vimentin, and Snail) was examined by Western blotting. (FIG. 4H) Cell invasion was examined by Transwell chamber assay with matrigel. (FIG. 4I) Starved HCT116 cells were treated SU (10 μM) for 1 h, followed by treatment with EpEX-His (50 nM) for 24 h. Phosphorylated GSK3β, active-β-catenin, and Snail were detected by Western blotting. (FIG. 4J) HCT116 cells were starved for 16 h, then treated with 50 nM EpEX-His for 24 min. AKT inhibitor LY294002 (25 μM), ERK inhibitor U0126 (20 μM), or PF-562271 (10 μM) were applied 1 h before EpEX treatment. Protein expression of phosphorylated GSK3β and Snail was examined by Western blotting. (FIG. 4K) HCT116 cells were starved for 16 h, then treated with 50 nM EpEX, and SU (10 μM), LY (25 μM), UO (20 μM) or PF (10 μM). Cell invasion was examined by Transwell chamber assay with matrigel. (FIG. 4L) Protein expression was analyzed by Western blotting in EpEX-His (50 nM) treated HCT116 cells after treatment with or without 2 μM GSK3β inhibitor (BIO) for 24 h. […]

| Molecule | EpEX-induced invasion (HCT116) | EpEX-induced migration and invasion | invasion and migration activities of HCT116 cells (EpAb2-6 10 μg/ml, wound healing, Transwell with matrigel 24 h) | effects of EpAb2-6 on invasion and migration when treated with HGF after EpAb2-6 (HCT116, EpAb2-6 10 μg/ml and HGF 0.5 nM, FIGS. 6C and 6D) |
| --- | --- | --- | --- | --- |
| CN(c1ncccc1CNc1nc(Nc2ccc3c(c2)CC(=O)N3)ncc1C(F)(F)F)S(C)(=O)=O [PF-562271] | suppressed | attenuate EpEX-induced migration and invasion |  |  |
| N#CC(=C(/N)Sc1ccccc1N)/C(C#N)=C(\N)Sc1ccccc1N [U0126] | suppressed | attenuate EpEX-induced migration and invasion |  |  |
| Cc1[nH]c(C=C2C(=O)Nc3ccc(S(=O)(=O)N(C)c4cccc(Cl)c4)cc32)c(C)c1C(=O)N1CCN(C)CC1 (stereo in doubt) [SU11274, (3Z)-N-(3-Chlorophenyl)-3-({3,5-dimethyl-4-[(4-methylpiperazin-1-yl)carbonyl]-1H-pyrrol-2-yl}methylene)-N-methyl-2-oxo-2,3-dihydro-1H-indole-5-sulfonamide] |  | attenuate EpEX-induced migration and invasion |  |  |
| EpAb2-6: anti-EpCAM neutralizing monoclonal antibody targeting EpEX; VH SEQ ID NO: 15, VL SEQ ID NO: 16 (antibody, listed as Homo sapiens, V domains shown) VH: VKLQESGPELKKPGETVKISCKASGYTFTDYSMHWVKQAPGKGLKWMGWINTETGEPTYADDFKGRFAFSLETSASTAYLQINNLKNEDTATYFCARTAVYWGQGTTVTVSS VL: DIQMTQSPSSLSASLGERVSLTCRASQEISVSLSWLQQEPDGTIKRLIYATSTLDSGVPKRFSGSRSGSDYSLTISSLESEDFVDYYCLQYASYPWTFGGGTKLEIKRADAAPTVS |  |  | significantly reduced; also recorded: attenuate the invasion and migration capacity of HCT116 cells | partially blunted |
